As usually defined, the melting point is the temperature, or range, at which the solid turns liquid. The IC50 is the concentration that inhibits the measured activity by half.

The subject of one series is BJ. In words: 3 day MTS cytotoxicity assay, BJ. The series is classed as cell-based. The following applies: Homo sapiens, non-cancer fibroblasts, mean ± SD, n ≥ 6. On the procedure: (§1) The cytotoxic activity of all the 10 compounds was tested under in vitro conditions using a 3 day standard 3-(4,5-dimethylthiazol-2yl)-5-(3-carboxymethoxyphenyl)-2-(4-sulfophenyl)-2H-tetrazolium reduction assay in 384-well plates on a robotic high-throughput screening platform (HighResBio, Boston, MA) as described elsewhere.[38] The IC50 values were calculated from the respective dose–response curves of compounds with Dotmatics (San Diego, CA, USA).
(In general: Tetrazolium assays rely on reduction of a dye to a coloured formazan, in cell work by metabolically active cells.)

In another series the test system is CCRF-CEM. Briefly: 3 day MTS cytotoxicity assay, CCRF-CEM. The series is classed as cell-based. To be noted: Homo sapiens, ITK-positive, mean ± SD, n ≥ 6. As for the experimental part:
as §1

A further series relates to MRC-5. Briefly: 3 day MTS cytotoxicity assay, MRC-5. To be noted: Homo sapiens, MRC5; MRC-5, non-cancer fibroblasts; mean ± SD, n ≥ 6. The series is classed as cell-based. As for the experimental part:
as §1

The subject of the next series is A549. In words: 3 day MTS cytotoxicity assay, A549. To be noted: Homo sapiens; A549, ITK/BTK-negative; mean ± SD, n ≥ 6. In kind it is cell-based. As for the experimental part: as §1
Another series deals with JURKAT. Briefly: 3 day MTS cytotoxicity assay, JURKAT. The series is classed as cell-based. To be noted: Homo sapiens, ITK-positive, mean ± SD, n ≥ 6. On the procedure: as §1
The next series relates to RAMOS. In words: 3 day MTS cytotoxicity assay, RAMOS. In kind it is cell-based, human. To be noted: for activity in RAMOS cells: BTK-high; for IC50: Homo sapiens, Ramos, BTK-positive, mean ± SD, n ≥ 6. On the procedure:
as §1

The test system of another series is K562. In words: 3 day MTS cytotoxicity assay, K562. In kind it is cell-based. The following applies: Homo sapiens; K562, BTK-positive; mean ± SD, n ≥ 6. As for the experimental part: as §1
The test system of another series is HCT116p53^–/–. Briefly: 3 day MTS cytotoxicity assay, HCT116p53-/-. To be noted: ITK/BTK-negative, mean ± SD, n ≥ 6. The series is classed as cell-based. On the procedure: as §1
In a further series the test system is U2OS. Briefly: 3 day MTS cytotoxicity assay, U2OS. The series is classed as cell-based. To be noted: Homo sapiens, ITK/BTK-negative, mean ± SD, n ≥ 6. As for the experimental part: as §1
The test system of the next series is HCT116. In words: 3 day MTS cytotoxicity assay, HCT116. The series is classed as cell-based. The following applies: Homo sapiens, HCT-116; HCT116, ITK/BTK-negative; mean ± SD, n ≥ 6. On the procedure:
as §1

SMILES strings stand for the structures. Entries after “also recorded” stand apart in the source; their conditions may differ. Counter-ions that a name gives are not always drawn. Where only a bound is given, the exact number is not on record here.

The compound `O=C1Nc2ccc(S(=O)(=O)N3CCN(C(=O)C4CCCCC4)CC3)cc2C1=C1CCCC1` (as salt: hydrochloride) [9b, 5-((4-(Cyclohexanecarbonyl)piperazin-1-yl)sulfonyl)-3-cyclopentylideneindolin-2-one] yielded a melting point of 140 to 145 °C.

Compound `O=C1Nc2ccc(S(=O)(=O)N3CCN(C(=O)C4CC4)CC3)cc2C1=C1CCCC1` (as salt: hydrochloride) [9c, 3-Cyclopentylidene-5-((4-(cyclopropanecarbonyl)piperazin-1-yl)sulfonyl)indolin-2-one] yielded a melting point of 136 to 142 °C.

Turning to `O=C1Nc2ccc(S(=O)(=O)N3CCN(C(=O)c4ccccc4)CC3)cc2C1=C1CCCC1` (as salt: hydrochloride) [9d, 5-((4-Benzoylpiperazin-1-yl)sulfonyl)-3-cyclopentylideneindolin-2-one], the melting point fell in the range of 135 to 140 °C.

On to `O=C1Nc2ccc(S(=O)(=O)N3CCN(C(=O)c4cccc(Cl)c4)CC3)cc2C1=C1CCCC1` (as salt: hydrochloride) [9e, 5-((4-(3-Chlorobenzoyl)piperazin-1-yl)sulfonyl)-3-cyclopentylideneindolin-2-one], for which the melting point fell in the range of 133 to 138 °C.

With `O=C1Nc2ccc(S(=O)(=O)N3CCN(C(=O)c4cccc(Br)c4)CC3)cc2C1=C1CCCC1` (as salt: hydrochloride) [9f, 5-((4-(3-Bromobenzoyl)piperazin-1-yl)sulfonyl)-3-cyclopentylideneindolin-2-one], the melting point was 130 to 135 °C.

In turn, `O=C1Nc2ccc(S(=O)(=O)N3CCN(C(=O)c4cccc(F)c4)CC3)cc2C1=C1CCCC1` (as salt: hydrochloride) [9g, 3-Cyclopentylidene-5-((4-(3-fluorobenzoyl)piperazin-1-yl)sulfonyl)indolin-2-one] registered a melting point of 132 to 135 °C.

Compound `CCCCC(=O)N1CCN(S(=O)(=O)c2ccc3c(c2)C(=C2CCCC2)C(=O)N3)CC1` (as salt: hydrochloride) [9h, 3-Cyclopentylidene-5-((4-pentanoylpiperazin-1-yl)sulfonyl)indolin-2-one] yielded a melting point of 130 to 135 °C.

Turning to `O=C1Nc2ccc(S(=O)(=O)N3CCN(C(=O)c4cccnc4)CC3)cc2C1=C1CCCC1` (as salt: hydrochloride) [9i, 3-Cyclopentylidene-5-((4-nicotinoylpiperazin-1-yl)sulfonyl)indolin-2-one], the melting point fell in the range of 195 to 200 °C.

`O=C1Nc2ccc(S(=O)(=O)N3CCN(C(=O)c4cccc(C(F)(F)F)c4)CC3)cc2C1=C1CCCC1` (as salt: hydrochloride) [9j, 3-Cyclopentylidene-5-((4-(3-(trifluoromethyl)benzoyl)piperazin-1-yl)sulfonyl)indolin-2-one] displayed a melting point of 139 to 143 °C.

In the case of `O=C1Nc2ccc(S(=O)(=O)N3CCN(C(=O)C4CC4)CC3)cc2C1=C1CCCC1` [9c, 3-Cyclopentylidene-5-((4-(cyclopropanecarbonyl)piperazin-1-yl)sulfonyl)indolin-2-one], the IC50 was more than 50 µM in the series with BJ; more than 50 µM with CCRF-CEM; more than 50 µM in the series with MRC-5; more than 50 µM with A549; 50 µM with JURKAT; more than 50 µM in the series with RAMOS. The IC50 in the series on K562, in the series on HCT116p53^–/–, with U2OS and with HCT116 was more than 50 µM throughout. Moreover, in the series with RAMOS, the “activity in RAMOS cells” value is on record as “did not show any activity”.

Turning to `O=C1Nc2ccc(S(=O)(=O)N3CCN(C(=O)c4ccccc4)CC3)cc2C1=C1CCCC1` [9d, 5-((4-Benzoylpiperazin-1-yl)sulfonyl)-3-cyclopentylideneindolin-2-one], the IC50 in the series with BJ, with CCRF-CEM, with MRC-5, in the series with A549, with JURKAT and in the series with RAMOS was more than 50 µM in each case. The IC50 in the series on K562, with HCT116p53^–/–, in the series with U2OS and in the series on HCT116 was more than 50 µM each time. The “activity in RAMOS cells” value in the series with RAMOS is “did not show any activity”.

On to `O=C1Nc2ccc(S(=O)(=O)N3CCN(C(=O)c4cccc(Cl)c4)CC3)cc2C1=C1CCCC1` [9e, 5-((4-(3-Chlorobenzoyl)piperazin-1-yl)sulfonyl)-3-cyclopentylideneindolin-2-one], for which the IC50 in the series on BJ, in the series on CCRF-CEM, with MRC-5, in the series with A549, with JURKAT and in the series on RAMOS was more than 50 µM each time. The IC50 in the series with K562, in the series on HCT116p53^–/–, in the series on U2OS and in the series on HCT116 was more than 50 µM throughout. In the series on RAMOS, the “activity in RAMOS cells” value is reported as “did not show any activity”.

With `O=C1Nc2ccc(S(=O)(=O)N3CCN(C(=O)c4cccc(F)c4)CC3)cc2C1=C1CCCC1` [9g, 3-Cyclopentylidene-5-((4-(3-fluorobenzoyl)piperazin-1-yl)sulfonyl)indolin-2-one], the IC50 with BJ was more than 50 µM; with CCRF-CEM, 46.5 ± 5.81 µM; in the series with MRC-5, more than 50 µM; in the series on A549 it was more than 50 µM; in the series with JURKAT, more than 50 µM; in the series with RAMOS, 2.09 ± 0.47 µM. Also, the half-maximal inhibitory concentration (IC50) with K562, in the series with HCT116p53^–/–, in the series with U2OS and in the series on HCT116 was more than 50 µM in each case. The “activity in RAMOS cells” value in the series with RAMOS was “selective cytotoxicity; also recorded: showed activity; also recorded: good anticancer activity in the micromole range”.

For `O=C1Nc2ccc(S(=O)(=O)N3CCN(C(=O)c4cccnc4)CC3)cc2C1=C1CCCC1` [9i, 3-Cyclopentylidene-5-((4-nicotinoylpiperazin-1-yl)sulfonyl)indolin-2-one], the IC50 in the series on BJ, with CCRF-CEM, in the series on MRC-5, with A549, in the series with JURKAT and with RAMOS was more than 50 µM throughout. Also, the IC50 in the series on K562, in the series on HCT116p53^–/–, with U2OS and in the series with HCT116 was more than 50 µM throughout. The “activity in RAMOS cells” value in the series with RAMOS is “no activity”.

As to `O=C1Nc2ccc(S(=O)(=O)N3CCN(C(=O)c4cccc(C(F)(F)F)c4)CC3)cc2C1=C1CCCC1` [9j, 3-Cyclopentylidene-5-((4-(3-(trifluoromethyl)benzoyl)piperazin-1-yl)sulfonyl)indolin-2-one], the IC50 is more than 50 µM in the series with BJ; more than 50 µM with CCRF-CEM; 27.4 ± 6.8 µM in the series with MRC-5; more than 50 µM with A549; more than 50 µM in the series with JURKAT; more than 50 µM with RAMOS. Besides, the IC50 was more than 50 µM in the series with K562, more than 50 µM in the series with HCT116p53^–/–, 23.6 ± 6.44 µM in the series with U2OS and more than 50 µM in the series with HCT116. Further, the “activity in RAMOS cells” value with RAMOS is “no activity”.

Regarding `C=CC(=O)N1CCC[C@@H](n2nc(-c3ccc(Oc4ccccc4)cc3)c3c(N)ncnc32)C1` [ibrutinib, Ibrutinib, reference compound], the IC50 in the series on BJ came out at 29 ± 1 µM; in the series on CCRF-CEM, 4 ± 1 µM; with MRC-5 it was 28 µM; in the series on JURKAT, 5 ± 1 µM; in the series on RAMOS it was 0.3 µM; with K562, 27 ± 3 µM. In addition, the results for the IC50 in the series with HCT116p53^–/–, in the series on U2OS and in the series on HCT116 were 30 ± 1 µM, 23 ± 3 µM and 30 ± 1 µM, respectively.

The values above are taken from publication PMC10882696, “Novel 5-Substituted Oxindole Derivatives as Bruton’s Tyrosine Kinase Inhibitors: Design, Synthesis, Docking, Molecular Dynamics Simulation, and Biological Evaluation” (ACS Omega, 2024).
